Drawing on patent US20250206763A1, “ENPP1 INHIBITOR” (SHANGHAI QILU PHARMACEUTICAL RESEARCH AND DEVELOPMENT …, priority 2022, published 2025), this text covers IC50 and EC50 for 15 molecules.

One assay deals with T1, human ENPP1 (Homo sapiens, UniProt P22413).
T1 construct: purchased Biovendor AP-18-081; host or cells: HEK293
T1 sequence (P22413 1-925): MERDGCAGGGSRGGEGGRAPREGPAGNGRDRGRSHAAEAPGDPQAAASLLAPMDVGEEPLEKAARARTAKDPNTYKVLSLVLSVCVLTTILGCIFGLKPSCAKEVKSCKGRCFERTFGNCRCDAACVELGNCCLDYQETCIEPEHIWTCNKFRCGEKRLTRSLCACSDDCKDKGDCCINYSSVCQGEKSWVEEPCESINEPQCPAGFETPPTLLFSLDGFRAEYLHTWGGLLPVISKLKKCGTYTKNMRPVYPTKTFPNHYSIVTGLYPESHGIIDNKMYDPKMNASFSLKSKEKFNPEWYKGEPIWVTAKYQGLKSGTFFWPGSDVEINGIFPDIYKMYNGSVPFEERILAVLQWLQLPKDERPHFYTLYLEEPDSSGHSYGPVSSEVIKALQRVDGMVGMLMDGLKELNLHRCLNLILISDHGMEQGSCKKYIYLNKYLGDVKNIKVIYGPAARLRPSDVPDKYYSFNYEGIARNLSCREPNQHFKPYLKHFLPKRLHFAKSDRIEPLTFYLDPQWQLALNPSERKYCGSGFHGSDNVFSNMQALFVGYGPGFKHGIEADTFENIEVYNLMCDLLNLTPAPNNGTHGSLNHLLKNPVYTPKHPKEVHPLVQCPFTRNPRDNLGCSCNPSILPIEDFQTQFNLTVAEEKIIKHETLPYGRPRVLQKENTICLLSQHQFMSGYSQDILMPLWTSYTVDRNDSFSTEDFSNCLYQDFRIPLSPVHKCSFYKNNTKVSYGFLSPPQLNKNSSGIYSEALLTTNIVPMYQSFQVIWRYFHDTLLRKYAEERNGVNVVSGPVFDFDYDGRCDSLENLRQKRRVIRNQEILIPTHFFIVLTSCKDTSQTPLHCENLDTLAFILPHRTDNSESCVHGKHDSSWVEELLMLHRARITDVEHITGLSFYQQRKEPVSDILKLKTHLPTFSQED
Put plainly: In vitro enzyme activity assay: human ENPP1 enzymatic assay (cGAMP), AMP-Glo. Format: biochemical. The settings on record: substrate cGAMP, AMP-Glo detection. The procedure:
AMP-Glo Assay Kit (PROMEGA, V5012), ENPP-1-IN-1 (MCE, HY-129490), white opaque 384-well plate (Perkin Elmer, 6008289), Mammalian (non-canonical) CDN, cyclic[g(2′,5′)pA(3′,5′)p](referred to as cGAMP hereinafter, Invivogen, tlrl-nacga23-5), ENPP1 Protein Human HEK293 (Biovendor, AP-18-081).
• 1) Preparing 1× reaction buffer (Tris buffer), 1× enzyme buffer, and 1× substrate buffer; • 2) diluting the compounds using Echo550 and supplementing with DMSO; • 3) pre-loading 2.5 μL of enzyme solution on a reaction plate (adding 2.5 μL of buffer instead as negative control) and incubating it at room temperature; • 4) adding 2.5 μL of substrate solution to the system and incubating it at room temperature; • 5) adding 5 μL of AMP-Glo solution that has been allowed to cooled down to room temperature, centrifuging and reacting at room temperature, • 6) adding 10 μL of AMP Detection solution at room temperature, centrifuging and reacting at room temperature; and • 7) reading the plate using EnVision.

The subject of another assay is MDA-MB-231 cells. Put plainly: Cell Activity Test 1: pNP-AMP hydrolysis on MDA-MB-231 cells, absorbance at 405. Type of assay: cell-based. The settings on record: Homo sapiens, 1 hour pre-incubation, 0.25 mM pNP-AMP, 5 hours of reaction, read-out: MDA-MB-231 cell biochemical IC50. Here is the method: MDA-MB-231 cells were digested and suspended, the cell density was adjusted to 4.5×10^5 cells per milliliter, and the cells were seeded in 384 microtiter plates at 50 microliters per well. The cells were incubated in an incubator at 37° C. with […] for 24 h. After 24 h, the cell plates were taken out, the cell culture medium was pipetted and washed once with 50 μL of PBS. Then 20 μL of 1640 medium free of phenol red and serum was added per well, and 2× of compound was added with Tecan, with 1:3 dilution. The compounds were pre-incubated for 1 hour. Afterwards, the reaction was initiated by adding a substrate mixture (50 μL system, 0.5 mM pNP-AMP dissolved in 1640 medium free of phenol red and serum) at a final substrate concentration of 0.25 mM. Absorbance values were read at 405 nm in a microplate reader after 5 hours of reaction, 4-Parameter Logistic Curve model was applied to calculate the […] of the compounds, taking positive compounds as 100% inhibition and DMSO as 0% inhibition.

The test system of assay [1] is MDA-MB-231 CM-THP1 (THP1-Dual Cells NF-κB-SEAP and IRF-Lucia luciferase Reporter Monocytes). Put plainly: Cell Activity Test 2: MDA-MB-231 cells treated with compound and cGAMP, supernatant transferred to THP1-Dual IRF-Lucia luciferase reporter cells. Format: cell-based. The settings on record: 30 minutes pretreatment, cGAMP 24 hours, supernatant on THP1-Dual reporter cells 24 hours, QUANTI-Luc. The text has this:
THP1-Dual Cells NF-κB-SEAP and IRF-Lucia luciferase Reporter Monocytes cells (Invivogen, thpd-nfis), MDA-MB-231 cells (ATCC, CRM-HTB-26), RPMI-1640 medium (Gibco, 11875-093), FBS (Gibco, 10099), penicillin-streptomycin (Gibco, 15070063), HEPES (ThermoFisher, 15630080), L-glutamine (ThermoFisher, 25030081), Normocin-Antimicrobial Reagent (InVivoGen, ant-nr-1), Zeocin (Invivogen, ant-zn-1), Blasticidin (Invivogen, ant-bl-1), Mammalian (non-canonical) CDN, cyclic [G(2′,5′)pA(3′,5′)p] (referred to as cGAMP hereinafter, Invivogen, tlrl-nacga23-1), QUANTI-Luc (InvivoGen, rep-qlc2), Multimode Plate Reader (PerkinElmer, EnVision 2105 Alpha 680 nm Laser), and conventional cell culture consumables (NEST). […]
An appropriate amount of MDA-MB-231 cells in logarithmic growth phase was taken and centrifuged at 300×g for 5 minutes, and the supernatant was removed. The cells were re-suspended with MDA-MB-231 cell growth medium and counted, and the cell density was adjusted to 6×10^4 cells/mL. […]
After 24 hours, the resulting was centrifuged at 300×g for 5 minutes, 10 μL of cell supernatant was transferred to a new 384-well plate with a white opaque bottom, followed by the addition of 25 μL of QUANTI-Luc reaction solution to each well. They were shaken well for 1 minute away from light and the plate was read immediately.
For orientation: A reporter such as luciferase makes a cellular process visible.

In the case of `O=c1[nH]c2cnc3c4c(ccc3c2n1Cc1ccc(P(=O)(O)O)c(F)c1)OCO4` [Compound 1, (2-fluoro-4-((7-oxo-6,7-dihydro-8H-[1,3]dioxolo[4,5-h]imidazo[4,5-c]quinolin-8-yl)methyl)phenyl)phosphonic add], the 50% inhibitory concentration (IC50) at human ENPP1 was less than 10 nM; in the assay with MDA-MB-231 cells, 1.12 nM. Further, the half-maximal effective concentration (EC50) in assay [1] turned out to be 3.5 nM.
Turning to `CCn1c(=O)n(Cc2ccc(S(C)(=N)=O)cc2)c2c3ccc4c(c3ncc21)OCO4` (stereo not drawn) [Compound 45], the IC50 on human ENPP1 was less than 10 nM.
On the same count and under the same terms, the same measure for `O=c1[nH]c2cnc3c4c(ccc3c2n1Cc1c(F)cc(B(O)O)cc1F)OCO4` [Compound 46]: less than 10 nM; for `Cn1c(=O)n(Cc2c(F)cc(B(O)O)cc2F)c2c3ccc4c(c3ncc21)OCO4` [Compound 47]: less than 10 nM; for `O=c1[nH]c2cnc3c4c(ccc3c2n1Cc1ccc(B(O)O)cc1)OCO4` [Compound 48]: less than 10 nM.
Regarding `COc1cc(Cn2c(=O)[nH]c3cnc4c5c(ccc4c32)OCO5)ccc1P(=O)(O)O` [Compound 49], on human ENPP1, the 50% inhibitory concentration (IC50) is less than 10 nM.
In turn, `O=c1n(Cc2ccc(P(=O)(O)O)c(F)c2)c2c3ccc4c(c3ncc2n1C(F)F)OCO4` [Compound 51] yielded a half-maximal inhibitory concentration (IC50) at human ENPP1 of less than 10 nM.
For `O=c1n(Cc2ccc(P(=O)(O)O)c(F)c2)c2c3ccc4c(c3ncc2n1-c1ccccc1)OCO4` [Compound 52], the IC50 at human ENPP1 was less than 10 nM.
In turn, `CN(C)CCn1c(=O)n(Cc2c(F)cc(S(N)(=O)=O)cc2F)c2c3ccc4c(c3ncc21)OCO4` [Compound 53] gave an IC50 at human ENPP1 of less than 10 nM.
Still for that read-out and setting: next, `Cc1nc2cnc3c4c(ccc3c2n1Cc1ccc(P(=O)(O)O)c(F)c1)OCO4` [Compound 54, (2-fluoro-4-((7-methyl-8H-[1,3]dioxolo[4,5-h]imidazo[4,4-c]quinolin-8-yl)methyl)phenyl)phosphonic acid]: less than 10 nM; `COc1cc2c(ncc3[nH]c(=O)n(Cc4ccc(P(=O)(O)O)c(F)c4)c32)c2c1OCO2` [Compound 55]: less than 10 nM; `Cn1c(=O)n(Cc2ccc(P(=O)(O)O)c(F)c2)c2c3cn[nH]c3ncc21` [Compound 60]: less than 10 nM.
Same read-out and setting: next, `O=c1[nH]c2cnc3c4c(ccc3c2n1Cc1ccc(P(=O)(O)O)c(OCc2ccccc2)c1)OCO4` [Compound 61]: less than 10 nM.
On the same count and under the same terms, next, `NS(=O)(=O)c1cnc(Cn2c(=O)[nH]c3cnc4c5c(ccc4c32)OCO5)c(F)c1` [Compound 63]: less than 10 nM.
On to `COc1ccc2c(ncc3[nH]c(=O)n(Cc4ccc(P(=O)(O)O)c(F)c4)c32)n1` [Control Compound, reference compound], for which the concentration for half-maximal inhibition (IC50) with MDA-MB-231 cells turned out to be 9.78 nM. Besides, the EC50 in assay [1] is 14.6 nM.

By IC50 is commonly meant the midpoint of a concentration-inhibition curve. As usually defined, the EC50 is the concentration giving half of the maximal effect.
